This test has as its target T1, human apelin receptor (APJ, APLNR) (Homo sapiens, UniProt P35414).
T1 construct: host or cells: Chinese hamster ovary (CHO) cells, stably integrated receptor
T1 sequence (P35414 1-380): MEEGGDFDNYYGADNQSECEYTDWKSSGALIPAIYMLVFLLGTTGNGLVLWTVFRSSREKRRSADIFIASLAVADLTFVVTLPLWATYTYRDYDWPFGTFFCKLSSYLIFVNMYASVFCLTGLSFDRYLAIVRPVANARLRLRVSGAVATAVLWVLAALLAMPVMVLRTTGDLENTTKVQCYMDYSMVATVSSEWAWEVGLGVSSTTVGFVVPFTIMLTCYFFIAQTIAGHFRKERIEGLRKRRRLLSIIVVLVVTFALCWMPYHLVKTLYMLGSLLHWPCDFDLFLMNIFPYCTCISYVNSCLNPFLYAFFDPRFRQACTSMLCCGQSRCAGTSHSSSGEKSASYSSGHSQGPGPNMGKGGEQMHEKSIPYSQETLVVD
The test is described as follows: cell-based cAMP assay (TR-FRET) in Chinese hamster ovary cells expressing the apelin receptor. To be noted: EC50 = 50% of control (apelin-13, 1 nM) response; cAMP in CHO cells, 0.5 h incubation; read-out: Potency Category. In outline: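 CHO cells stably expressing human APJ were forskolin-stimulated, then exposed to compound (0.0-100 μM, ≤1% DMSO) for 0.5 h. Lysate cAMP read by competitive TR-FRET immunoassay; EC50 and efficacy expressed relative to 1 nM apelin-13, four-parameter fit over ≥10 concentrations.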

Consider `Cc1cccc(C)c1-c1c(C)nn2c(C3=CCCCC3)cc(C(=O)O)nc12` [Compound 154, 3-(2,6-dimethylphenyl)-7-cyclohex-1-enyl-2-methyl-8-hydropyrazolo[1,5-a]pyrimidine-5-carboxylic acid], for which the EC50 was greater than 500 nM.

For `Cc1cccc(C)c1-c1c(C)nn2c(C3CCCCC3)cc(C(=O)O)nc12` [Compound 155, 3-(2,6-dimethylphenyl)-7-cyclohexyl-2-methyl-8-hydropyrazolo[1,5-a]pyrimidine-5-carboxylic acid], the EC50 was greater than 500 nM.

Regarding `Cc1cccc(C)c1-c1c(C)nn2c(-c3ccco3)cc(C(=O)O)nc12` [Compound 156, 3-(2,6-dimethylphenyl)-7-(2-furyl)-2-methyl-8-hydropyrazolo[1,5-a]pyrimidine-5-carboxylic acid], the EC50 was greater than 500 nM. As to `Cc1cccc(C)c1-c1c(C)nn2c(C3=CCNCC3)cc(C(=O)O)nc12` [Compound 158, 3-(2,6-dimethylphenyl)-2-methyl-7-(4-1,2,5,6-tetrahydropyridyl)-8-hydropyrazolo[1,5-a]pyrimidine-5-carboxylic acid], the EC50 was greater than 500 nM. For `COC(=O)c1cc(Cl)n2nc(C)c(-c3c(C)cccc3C)c2n1` [Compound 159, methyl 3-(2,6-dimethylphenyl)-7-chloro-2-methyl-8-hydropyrazolo[1,5-a]pyrimidine-5-carboxylate], the EC50 is greater than 500 nM.
